Experimental data: US20200017496A1 (priority 2017, published 2020)
Read-outs that look alike come from different tables or passages of the source.

System: Escherichia coli (ECO) isolates
Assay: MIC of compounds alone and combined with antibacterials, broth microdilution (CLSI)
Assay type: cell-based
Conditions: for MIC: Escherichia coli
Description: Method 2: MIC of Compounds Alone and Combined with Antibacterials Against Bacterial Isolates.
Compounds of the present invention were assessed against genotyped bacterial strains (Table 3, 4) alone or in combination with an antibacterial (Table 2). […] Log phase bacterial suspensions were adjusted to a final density of 5·10^5 CFU/mL in cation-adjusted Mueller-Hinton broth (ca-MHB; Becton-Dickinson and Company) and added to each well (98 μL). Microplates were incubated for 16-20 h at 35° C. in ambient air. The MIC of the compounds was defined as the lowest concentration of said compounds that prevented bacterial growth as read by visual inspection. The MIC of ATB at each compound concentration was defined as the lowest concentration of ATB that prevented bacterial growth as read by visual inspection.

## C=CC1=C(C(=O)O)N2C(=O)[C@@H](NC(=O)/C(=N\OCC(=O)O)c3csc(N)n3)[C@H]2SC1 [FIX, Cefixime]
ECO RGN238, AF1 @ 8 μg/mL
  MIC ATB in combination: <=0.25 μg/mL
ECO UFR15, AF1 @ 4 μg/mL
  MIC ATB in combination: <=0.25 μg/mL
ECO UFR15, AF1 @ 8 μg/mL
  MIC ATB in combination: <=0.25 μg/mL
ECO UFR16, AF1 @ 4 μg/mL
  MIC ATB in combination: <=0.25 μg/mL
ECO UFR16, AF1 @ 8 μg/mL
  MIC ATB in combination: <=0.25 μg/mL
ECO UFR17, AF1 @ 8 μg/mL
  MIC ATB in combination: 16 µg/mL
ECO UFR18, AF1 @ 4 μg/mL
  MIC ATB in combination: 16 µg/mL
ECO UFR18, AF1 @ 8 μg/mL
  MIC ATB in combination: 0.5 µg/mL
ECO UFR19, AF1 @ 4 μg/mL
  MIC ATB in combination: 16 µg/mL
ECO UFR19, AF1 @ 8 μg/mL
  MIC ATB in combination: <0.25 µg/mL
ECO UFR20, AF1 @ 4 μg/mL
  MIC ATB in combination: 1 µg/mL
ECO UFR20, AF1 @ 8 μg/mL
  MIC ATB in combination: 1 µg/mL
ECO UFR61O, AF1 @ 4 μg/mL
  MIC ATB in combination: 0.25 µg/mL
ECO UFR62, AF1 @ 4 μg/mL
  MIC ATB in combination: <=0.25 μg/mL
ECO UFR62, AF1 @ 8 μg/mL
  MIC ATB in combination: <=0.25 μg/mL
ECO UFR74, AF1 @ 4 μg/mL
  MIC ATB in combination: 32 µg/mL
ECO UFR74, AF1 @ 8 μg/mL
  MIC ATB in combination: 1 µg/mL
ECO UFR86, AF1 @ 4 μg/mL
  MIC ATB in combination: 0.5 µg/mL
ECO UFR86, AF1 @ 8 μg/mL
  MIC ATB in combination: <=0.25 μg/mL
ECO UFR174, AF1 @ 4 μg/mL
  MIC ATB in combination: <=0.25 μg/mL
ECO UFR174, AF1 @ 8 μg/mL
  MIC ATB in combination: <0.25 µg/mL
ECO UFR175, AF1 @ 4 μg/mL
  MIC ATB in combination: <=0.25 μg/mL
ECO UFR175, AF1 @ 8 μg/mL
  MIC ATB in combination: <=0.25 μg/mL
ECO UFR176, AF1 @ 4 μg/mL
  MIC ATB in combination: <=0.25 μg/mL
ECO UFR176, AF1 @ 8 μg/mL
  MIC ATB in combination: <=0.25 μg/mL
ECO UFR184, AF1 @ 4 μg/mL
  MIC ATB in combination: 8 µg/mL
ECO UFR184, AF1 @ 8 μg/mL
  MIC ATB in combination: <=0.25 μg/mL
ECO UFR185, AF1 @ 4 μg/mL
  MIC ATB in combination: 4 µg/mL
ECO UFR185, AF1 @ 8 μg/mL
  MIC ATB in combination: <0.25 µg/mL
ECO UFR186, AF1 @ 4 μg/mL
  MIC ATB in combination: <=0.25 μg/mL
ECO UFR186, AF1 @ 8 μg/mL
  MIC ATB in combination: <=0.25 μg/mL
ECO UFR187, AF1 @ 4 μg/mL
  MIC ATB in combination: <=0.25 μg/mL
ECO UFR187, AF1 @ 8 μg/mL
  MIC ATB in combination: <=0.25 μg/mL
ECO UFR189, AF1 @ 4 μg/mL
  MIC ATB in combination: <=0.25 μg/mL
ECO UFR189, AF1 @ 8 μg/mL
  MIC ATB in combination: <=0.25 μg/mL
ECO UFR190, AF1 @ 4 μg/mL
  MIC ATB in combination: <=0.25 μg/mL
ECO UFR190, AF1 @ 8 μg/mL
  MIC ATB in combination: <=0.25 μg/mL
ECO UFR191, AF1 @ 4 μg/mL
  MIC ATB in combination: <=0.25 μg/mL
ECO UFR191, AF1 @ 8 μg/mL
  MIC ATB in combination: <=0.25 μg/mL
ECO UFR207, AF1 @ 4 μg/mL
  MIC ATB in combination: <=0.25 μg/mL
ECO UFR207, AF1 @ 8 μg/mL
  MIC ATB in combination: <=0.25 μg/mL
ECO UFR208, AF1 @ 4 μg/mL
  MIC ATB in combination: 64 µg/mL
ECO UFR208, AF1 @ 8 μg/mL
  MIC ATB in combination: 32 µg/mL
ECO UFR209, AF1 @ 8 μg/mL
  MIC ATB in combination: 0.063 µg/mL
ECO UFR210, AF1 @ 4 μg/mL
  MIC ATB in combination: <=0.25 μg/mL
ECO UFR210, AF1 @ 8 μg/mL
  MIC ATB in combination: <=0.25 μg/mL
ECO UFR211, AF1 @ 4 μg/mL
  MIC ATB in combination: <=0.25 μg/mL
ECO UFR211, AF1 @ 8 μg/mL
  MIC ATB in combination: <=0.25 μg/mL
ECO UFR212, AF1 @ 4 μg/mL
  MIC ATB in combination: 64 µg/mL
ECO UFR212, AF1 @ 8 μg/mL
  MIC ATB in combination: <=0.25 μg/mL
ECO UFR218, AF1 @ 4 μg/mL
  MIC ATB in combination: <=0.25 μg/mL
ECO UFR218, AF1 @ 8 μg/mL
  MIC ATB in combination: <=0.25 μg/mL
ECO 190317, alone, read-out: MIC
  MIC: > 128 µg/mL
ECO 190457, alone, read-out: MIC
  MIC: 128 µg/mL
ECO UFR16, alone, read-out: MIC
  MIC: > 128 µg/mL
ECO UFR20, alone
  MIC: 512 µg/mL
ECO UFR209, alone, read-out: MIC
  MIC: 1020 µg/mL
Strain ECO 4133 (TEM-30, OXA-1), ATB alone
  MIC: 0.5 µg/mL
Strain ECO 4133 (TEM-30, OXA-1), CLA @ 4 μg/ml+ ATB
  MIC: 0.5 µg/mL
Strain ECO 5302 (TEM-1, OXA-1), ATB alone
  MIC: 0.5 µg/mL
Strain ECO 5302 (TEM-1, OXA-1), CLA @ 4 μg/ml+ ATB
  MIC: 0.5 µg/mL
Strain ECO 131119 (TEM-1, OXA-48), ATB alone
  MIC: ≤ 0.25 µg/mL
Strain ECO 131119 (TEM-1, OXA-48), CLA @ 4 μg/ml+ ATB
  MIC: ≤ 0.25 µg/mL
Strain ECO 180070 (TEM-1, CTX-M-15), ATB alone, read-out: MIC
  MIC: 128 µg/mL
Strain ECO 190314 (CTX-M-1), ATB alone
  MIC: 16 µg/mL
Strain ECO 190317 (TEM-1, SHV-12, CTX-M-15, OXA-1), ATB alone, read-out: MIC
  MIC: > 128 µg/mL
Strain ECO 190317 (TEM-1, SHV-12, CTX-M-15, OXA-1), CLA @ 4 μg/ml+ ATB
  MIC: 0.5 µg/mL
Strain ECO 190457 (CTX-M-15, OXA-1), ATB alone, read-out: MIC
  MIC: 128 µg/mL
Strain ECO 190457 (CTX-M-15, OXA-1), CLA @ 4 μg/ml+ ATB
  MIC: 0.5 µg/mL
Strain ECO 190549 (CTX-M-1), ATB alone
  MIC: 16 µg/mL
Strain ECO 190549 (CTX-M-1), CLA @ 4 μg/ml+ ATB
  MIC: 0.5 µg/mL
Strain ECO 200159 (TEM-1, CTX-M-14), ATB alone
  MIC: 8 µg/mL
Strain ECO 200159 (TEM-1, CTX-M-14), CLA @ 4 μg/ml+ ATB
  MIC: ≤ 0.25 µg/mL
Strain ECO 200259 (CTX-M-14), ATB alone
  MIC: 8 µg/mL
Strain ECO 200259 (CTX-M-14), CLA @ 4 μg/ml+ ATB
  MIC: ≤ 0.25 µg/mL
Strain ECO 200344 (CTX-M-1), CLA @ 4 μg/ml+ ATB
  MIC: 0.5 µg/mL
Strain ECO 260096 (CTX-M-132), ATB alone, read-out: MIC
  MIC: > 128 µg/mL
